Reference: ChEMBL document CHEMBL1201862, “PubChem BioAssay data set” (2004)
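These data come from cells grown in 96-well plates and exposed to compound for 48 hours at five concentrations. The concentration for 50% growth inhibition is given as GI50.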 Calls of active or inactive are those of the source. Cut-off read from the data, not from the text of the source: active = GI50 up to about 1.1 µM and inactive = higher.

What was measured:
Experiment in all cases: growth of human tumour cells (NCI), 48 h
786-0 = tested on: 786-0
COLO 205 = tested on: COLO 205
EKVX = tested on: EKVX
HOP-62 = tested on: HOP-62
IGROV-1 = tested on: IGROV-1
MCF7 = tested on: MCF7
MDA-MB-435 = tested on: MDA-MB-435
MDA-N = tested on: MDA-N
Malme-3M = tested on: Malme-3M
OVCAR-3 = tested on: OVCAR-3
OVCAR-4 = tested on: OVCAR-4
OVCAR-8 = tested on: OVCAR-8
SK-MEL-5 = tested on: SK-MEL-5
SK-OV-3 = tested on: SK-OV-3
T47D = tested on: T47D
TK-10 = tested on: TK-10
UACC-257 = tested on: UACC-257
UACC-62 = tested on: UACC-62
SNB-75 = tested on: SNB-75
SW-620 = tested on: SW-620

Measured: GI50

COC(=O)CCCc1ccc2c(c1)CC1(C2)Cc2cc3c(cc2C1)CCCC3
inactive: 786-0 43.9 µM | COLO 205 20.5 µM | EKVX 35.2 µM | HOP-62 34.8 µM | IGROV-1 44.9 µM | MCF7 44.6 µM | MDA-MB-435 13.9 µM | MDA-N 16.8 µM | Malme-3M 37.6 µM | OVCAR-3 27.5 µM | OVCAR-4 42.5 µM | OVCAR-8 44.5 µM | SK-MEL-5 19.2 µM | SK-OV-3 > 100 µM | T47D 50.7 µM | TK-10 > 100 µM | UACC-257 33.8 µM | UACC-62 21.1 µM

O=c1[nH]nc(Cc2ccc([N+](=O)[O-])cc2)[nH]1
inactive: 786-0 > 100 µM | COLO 205 > 100 µM | EKVX 54.6 µM | HOP-62 > 100 µM | IGROV-1 > 100 µM | MCF7 > 100 µM | MDA-MB-435 > 100 µM | MDA-N > 100 µM | Malme-3M > 100 µM | OVCAR-3 > 100 µM | OVCAR-4 > 100 µM | OVCAR-8 > 100 µM | SK-MEL-5 > 100 µM | SNB-75 > 100 µM | SW-620 > 100 µM | T47D > 100 µM | TK-10 > 100 µM | UACC-257 > 100 µM | UACC-62 > 100 µM

C=C(C)[C@@H]1CC[C@]2(C)CC[C@]3(C)[C@H](CC[C@@H]4[C@@]5(C)CC[C@H](O)C(C)(C)[C@@H]5CC[C@]43C)[C@@H]12 [LUPEOL]
inactive: 786-0 37.2 µM | COLO 205 > 100 µM | EKVX 72.9 µM | HOP-62 > 58.3 µM | IGROV-1 > 54.7 µM | MCF7 21.7 µM | MDA-MB-435 19.4 µM | MDA-N 32.7 µM | Malme-3M > 89.3 µM | OVCAR-3 > 55.1 µM | OVCAR-4 > 100 µM | OVCAR-8 33.3 µM | SK-MEL-5 > 74 µM | SNB-75 38.2 µM | SW-620 > 48.2 µM | T47D > 100 µM | TK-10 > 79.6 µM | UACC-257 > 42.7 µM | UACC-62 > 100 µM

COc1ccc2c(c1OC)C(Br)CCC(Br)(Br)C2=O (centres undefined)
inactive: 786-0 4.23 µM | COLO 205 3.02 µM | EKVX 14.1 µM | HOP-62 18.9 µM | IGROV-1 5.83 µM | MCF7 9.02 µM | MDA-MB-435 6.41 µM | MDA-N 3.99 µM | Malme-3M 10.7 µM | OVCAR-3 15.8 µM | OVCAR-4 6 µM | OVCAR-8 7.45 µM | SK-MEL-5 2.47 µM | SK-OV-3 16.4 µM | SW-620 2.25 µM | T47D 13.8 µM | TK-10 6.79 µM | UACC-257 14.6 µM | UACC-62 14.6 µM

CC(=O)Nc1ccc(NC(=O)CC(=O)Nc2ccc(NC(C)=O)cc2)cc1
inactive: 786-0 > 100 µM | COLO 205 > 100 µM | EKVX > 100 µM | IGROV-1 > 100 µM | MCF7 > 100 µM | MDA-MB-435 > 100 µM | MDA-N > 100 µM | Malme-3M > 100 µM | OVCAR-3 > 100 µM | OVCAR-4 > 100 µM | OVCAR-8 > 100 µM | SK-MEL-5 > 100 µM | SK-OV-3 20.2 µM | SW-620 > 100 µM | T47D 32 µM | TK-10 > 100 µM | UACC-257 > 100 µM | UACC-62 5.74 µM

COc1ccc(C2SC(=N)Nc3c2c(C)nn3C(=O)Cc2ccccc2)cc1 (centres undefined)
inactive: 786-0 > 100 µM | COLO 205 > 100 µM | EKVX > 100 µM | HOP-62 > 100 µM | IGROV-1 > 100 µM | MCF7 > 100 µM | MDA-MB-435 > 100 µM | MDA-N > 100 µM | Malme-3M > 100 µM | OVCAR-8 > 100 µM | SK-MEL-5 > 100 µM | SK-OV-3 > 100 µM | SNB-75 10.9 µM | SW-620 > 100 µM | T47D > 100 µM | TK-10 > 100 µM | UACC-257 > 100 µM | UACC-62 > 100 µM

N#CC1(C#N)C(C#N)(C#N)C1(C#N)C(N)=O
inactive: 786-0 > 100 µM | COLO 205 > 100 µM | EKVX > 100 µM | HOP-62 > 100 µM | IGROV-1 > 100 µM | MCF7 > 100 µM | MDA-MB-435 > 100 µM | MDA-N > 100 µM | Malme-3M > 100 µM | OVCAR-4 > 100 µM | OVCAR-8 > 100 µM | SK-MEL-5 > 100 µM | SK-OV-3 > 100 µM | SW-620 > 100 µM | T47D > 100 µM | TK-10 > 100 µM | UACC-257 > 100 µM | UACC-62 > 100 µM

Cc1nc(O)nc(N/N=C/c2c3ccccc3c(Cl)c3ccccc23)c1C(=O)Nc1ccc(Cl)cc1
inactive: 786-0 36 µM | HOP-62 34.7 µM | IGROV-1 71.1 µM | MCF7 > 100 µM | MDA-MB-435 > 100 µM | MDA-N > 100 µM | Malme-3M > 100 µM | OVCAR-3 58.3 µM | OVCAR-4 45.5 µM | OVCAR-8 68.9 µM | SK-MEL-5 41.8 µM | SNB-75 > 100 µM | SW-620 52.6 µM | T47D > 100 µM | TK-10 47.6 µM | UACC-257 > 100 µM | UACC-62 50.5 µM

Nc1ncc(Sc2ccccc2C(=O)O)s1
inactive: 786-0 > 100 µM | COLO 205 > 100 µM | EKVX > 100 µM | HOP-62 > 100 µM | IGROV-1 > 100 µM | MCF7 > 100 µM | MDA-MB-435 > 100 µM | MDA-N > 100 µM | OVCAR-3 > 100 µM | OVCAR-8 > 100 µM | SK-MEL-5 > 100 µM | SNB-75 > 100 µM | SW-620 > 100 µM | T47D > 100 µM | TK-10 > 100 µM | UACC-257 > 100 µM | UACC-62 > 100 µM

Cc1ccc(C2(c3ccc(C)c(O)c3C)CCN(C)CC2)c(C)c1O
inactive: 786-0 51.2 µM | EKVX 44.4 µM | HOP-62 51.2 µM | IGROV-1 > 100 µM | MDA-MB-435 92.9 µM | MDA-N 58.5 µM | Malme-3M 52.7 µM | OVCAR-3 54 µM | OVCAR-4 > 100 µM | OVCAR-8 > 100 µM | SK-MEL-5 > 100 µM | SNB-75 > 100 µM | SW-620 88.1 µM | T47D 64.6 µM | TK-10 19.9 µM | UACC-257 15.8 µM | UACC-62 > 100 µM

O=C1C=Cc2c(Br)sc(Br)c21
inactive: 786-0 34.9 µM | COLO 205 34.2 µM | EKVX 26.1 µM | HOP-62 29.8 µM | IGROV-1 18.6 µM | MCF7 19.3 µM | MDA-MB-435 19.1 µM | MDA-N 30.1 µM | Malme-3M 23.1 µM | OVCAR-3 15.8 µM | OVCAR-8 26.5 µM | SK-MEL-5 91.2 µM | SK-OV-3 88.1 µM | SNB-75 90.4 µM | SW-620 18 µM | T47D 34 µM | TK-10 4.78 µM | UACC-257 26.6 µM | UACC-62 23.7 µM

C=CCN(c1cc(OCc2ccccc2)c2c(c1)c(C)cn2S(=O)(=O)c1ccccc1)S(C)(=O)=O
inactive: 786-0 > 100 µM | COLO 205 > 100 µM | EKVX > 100 µM | HOP-62 > 100 µM | IGROV-1 > 100 µM | MDA-MB-435 > 100 µM | MDA-N > 100 µM | Malme-3M > 100 µM | OVCAR-3 > 100 µM | OVCAR-4 > 100 µM | OVCAR-8 > 100 µM | SK-MEL-5 > 100 µM | SK-OV-3 > 100 µM | SNB-75 > 100 µM | SW-620 > 100 µM | T47D > 100 µM | TK-10 > 100 µM | UACC-257 > 100 µM | UACC-62 > 100 µM

O=C1C(=CNc2ccccc2Cl)C(=O)N(c2ccccc2)C(=O)N1c1ccccc1
inactive: 786-0 > 100 µM | COLO 205 > 100 µM | EKVX > 100 µM | HOP-62 > 100 µM | IGROV-1 > 100 µM | MCF7 > 100 µM | MDA-MB-435 > 100 µM | MDA-N > 100 µM | Malme-3M > 100 µM | OVCAR-3 > 100 µM | OVCAR-4 > 100 µM | OVCAR-8 23.7 µM | SK-MEL-5 > 100 µM | SK-OV-3 > 100 µM | SW-620 > 100 µM | T47D > 100 µM | TK-10 > 100 µM | UACC-257 > 100 µM | UACC-62 > 100 µM

CC(=O)CCN1CC2CN=NC2(C#N)C1 (centres undefined)
inactive: 786-0 36.6 µM | COLO 205 36.2 µM | EKVX > 100 µM | HOP-62 > 100 µM | IGROV-1 > 100 µM | MCF7 35.2 µM | MDA-MB-435 > 100 µM | MDA-N 75.7 µM | Malme-3M 69.7 µM | OVCAR-3 > 100 µM | OVCAR-4 > 100 µM | OVCAR-8 > 100 µM | SK-MEL-5 > 100 µM | SNB-75 > 100 µM | SW-620 17 µM | T47D 35.6 µM | TK-10 > 100 µM | UACC-257 > 100 µM | UACC-62 > 100 µM

Cc1ccc(OCCn2cc(Nc3ccccc3)c(=O)n(CCOc3ccc(C)cc3)c2=O)cc1
inactive: 786-0 48 µM | COLO 205 > 100 µM | EKVX > 100 µM | IGROV-1 50.8 µM | MCF7 > 100 µM | MDA-MB-435 > 100 µM | MDA-N > 100 µM | Malme-3M 80 µM | OVCAR-3 > 100 µM | OVCAR-4 49.9 µM | OVCAR-8 40.6 µM | SK-MEL-5 > 100 µM | SNB-75 > 100 µM | SW-620 > 100 µM | T47D > 100 µM | TK-10 48.4 µM | UACC-257 > 100 µM | UACC-62 > 100 µM
